Results taken from ChEMBL document CHEMBL1144546, “Design and synthesis of rho kinase inhibitors (III)” (Bioorg Med Chem, 2007).

How the values were obtained:
[1] = target: T1, Rho-associated protein kinase (Homo sapiens, UniProt O75116+Q13464)
[2] = target: Rho-associated protein kinase 2 (Rattus norvegicus) (UniProt Q62868); assay: Ex vivo inhibition of Rho kinase activity in Sprague-Dawley rat serum at 30 mg/kg, po after 4 hrs; type: organism-based; design: dose 30 mg/kg; scale not given: the % may be the effect or the level left
Sequence of Rho-associated protein kinase 2 (Rattus norvegicus) (Q62868 whole entry, looked up): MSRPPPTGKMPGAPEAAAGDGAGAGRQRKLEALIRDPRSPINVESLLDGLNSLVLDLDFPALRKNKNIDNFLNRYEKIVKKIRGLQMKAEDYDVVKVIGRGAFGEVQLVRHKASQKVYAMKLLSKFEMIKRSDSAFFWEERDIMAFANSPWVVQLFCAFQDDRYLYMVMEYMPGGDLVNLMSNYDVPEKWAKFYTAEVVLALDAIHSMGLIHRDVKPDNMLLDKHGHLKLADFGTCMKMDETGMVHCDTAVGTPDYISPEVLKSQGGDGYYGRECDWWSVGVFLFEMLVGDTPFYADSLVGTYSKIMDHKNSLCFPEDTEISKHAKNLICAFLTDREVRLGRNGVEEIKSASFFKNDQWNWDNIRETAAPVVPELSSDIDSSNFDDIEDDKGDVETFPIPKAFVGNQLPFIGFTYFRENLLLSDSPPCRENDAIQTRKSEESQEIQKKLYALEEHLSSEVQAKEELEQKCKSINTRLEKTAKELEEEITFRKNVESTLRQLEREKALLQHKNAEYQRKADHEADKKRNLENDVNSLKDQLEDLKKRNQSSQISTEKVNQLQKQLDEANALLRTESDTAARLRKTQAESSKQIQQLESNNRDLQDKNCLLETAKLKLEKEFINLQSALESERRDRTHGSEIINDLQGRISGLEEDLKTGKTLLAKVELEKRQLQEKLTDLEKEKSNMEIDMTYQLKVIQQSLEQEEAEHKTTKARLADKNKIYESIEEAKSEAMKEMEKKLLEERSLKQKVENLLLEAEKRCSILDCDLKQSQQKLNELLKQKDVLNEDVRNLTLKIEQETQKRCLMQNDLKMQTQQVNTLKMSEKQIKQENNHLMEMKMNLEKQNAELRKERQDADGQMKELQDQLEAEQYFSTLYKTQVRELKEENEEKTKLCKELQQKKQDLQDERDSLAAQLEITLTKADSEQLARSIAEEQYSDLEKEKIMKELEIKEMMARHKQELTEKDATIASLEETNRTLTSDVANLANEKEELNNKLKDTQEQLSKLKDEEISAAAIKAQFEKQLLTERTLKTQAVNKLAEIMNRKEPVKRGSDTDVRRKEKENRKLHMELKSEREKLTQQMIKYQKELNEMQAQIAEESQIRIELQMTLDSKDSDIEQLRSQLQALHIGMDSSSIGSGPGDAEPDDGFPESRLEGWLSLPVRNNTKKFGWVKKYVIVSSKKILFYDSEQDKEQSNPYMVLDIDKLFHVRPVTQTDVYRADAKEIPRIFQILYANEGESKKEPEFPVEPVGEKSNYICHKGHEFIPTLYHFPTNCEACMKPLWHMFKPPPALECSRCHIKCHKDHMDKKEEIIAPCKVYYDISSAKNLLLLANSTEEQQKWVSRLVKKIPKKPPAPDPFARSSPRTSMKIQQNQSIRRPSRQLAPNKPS

[3] = target: Rho-associated protein kinase 2 (Rattus norvegicus) (UniProt Q62868); assay: Ex vivo inhibition of Rho kinase activity in Sprague-Dawley rat serum at 30 mg/kg, po after 8 hrs; type: organism-based; design: dose 30 mg/kg; scale not given: the % may be the effect or the level left
[4] = target: Rho-associated protein kinase 2 (Rattus norvegicus) (UniProt Q62868); assay: Ex vivo inhibition of Rho kinase activity in Sprague-Dawley rat serum at 30 mg/kg, po after 1 hrs; type: organism-based; design: dose 30 mg/kg; scale not given: the % may be the effect or the level left
[5] = target: T1, Rho-associated protein kinase; assay: Inhibition of TPA-induced Rho kinase dependent MBS phosphorylation in MDCK 2 cells; type: functional, cell-based; details: Canis lupus familiaris
[6] = Metabolic stability in rat liver microsome at 10 uM after 30 mins; details: liver microsomes
[7] = Inhibition of MCP1-induced chemotaxis in U937 cells overexpressing CCR2; details: u-937

T1 sequence (O75116 whole entry, looked up): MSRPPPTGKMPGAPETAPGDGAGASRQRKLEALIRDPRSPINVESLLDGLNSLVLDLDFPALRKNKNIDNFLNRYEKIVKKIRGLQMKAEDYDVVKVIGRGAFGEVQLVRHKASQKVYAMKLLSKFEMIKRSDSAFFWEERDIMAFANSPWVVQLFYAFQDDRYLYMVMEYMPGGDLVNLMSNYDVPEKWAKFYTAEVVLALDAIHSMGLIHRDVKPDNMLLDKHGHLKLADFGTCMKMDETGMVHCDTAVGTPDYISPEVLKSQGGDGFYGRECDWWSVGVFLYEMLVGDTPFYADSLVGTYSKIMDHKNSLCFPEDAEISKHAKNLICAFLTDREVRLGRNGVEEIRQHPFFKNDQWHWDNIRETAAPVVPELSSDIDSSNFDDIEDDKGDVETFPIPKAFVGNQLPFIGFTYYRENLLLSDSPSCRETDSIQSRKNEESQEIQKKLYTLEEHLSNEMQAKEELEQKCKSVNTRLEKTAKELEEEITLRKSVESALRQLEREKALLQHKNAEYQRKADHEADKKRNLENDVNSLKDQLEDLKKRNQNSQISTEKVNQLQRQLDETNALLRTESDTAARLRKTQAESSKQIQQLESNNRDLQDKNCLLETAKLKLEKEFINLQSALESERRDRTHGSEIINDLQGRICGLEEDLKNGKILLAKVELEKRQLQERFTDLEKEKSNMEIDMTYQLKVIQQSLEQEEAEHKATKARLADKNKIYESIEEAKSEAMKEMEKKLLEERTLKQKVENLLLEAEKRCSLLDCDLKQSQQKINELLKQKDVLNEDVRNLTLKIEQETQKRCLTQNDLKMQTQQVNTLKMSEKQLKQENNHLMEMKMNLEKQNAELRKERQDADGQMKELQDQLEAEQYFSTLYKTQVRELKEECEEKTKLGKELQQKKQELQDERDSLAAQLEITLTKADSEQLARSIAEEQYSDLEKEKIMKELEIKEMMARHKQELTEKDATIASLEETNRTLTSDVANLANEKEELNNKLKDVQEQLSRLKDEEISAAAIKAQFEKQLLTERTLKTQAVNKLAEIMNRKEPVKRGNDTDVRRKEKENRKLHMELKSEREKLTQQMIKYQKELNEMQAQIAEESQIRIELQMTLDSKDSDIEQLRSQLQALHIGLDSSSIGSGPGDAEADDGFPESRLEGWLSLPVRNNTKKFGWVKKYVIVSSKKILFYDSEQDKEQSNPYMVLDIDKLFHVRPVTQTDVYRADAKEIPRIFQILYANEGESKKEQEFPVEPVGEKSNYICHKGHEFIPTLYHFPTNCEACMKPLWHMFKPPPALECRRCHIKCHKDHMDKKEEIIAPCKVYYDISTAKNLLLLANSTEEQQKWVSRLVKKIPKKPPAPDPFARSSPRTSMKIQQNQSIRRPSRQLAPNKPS
T1 sequence (Q13464 whole entry, looked up): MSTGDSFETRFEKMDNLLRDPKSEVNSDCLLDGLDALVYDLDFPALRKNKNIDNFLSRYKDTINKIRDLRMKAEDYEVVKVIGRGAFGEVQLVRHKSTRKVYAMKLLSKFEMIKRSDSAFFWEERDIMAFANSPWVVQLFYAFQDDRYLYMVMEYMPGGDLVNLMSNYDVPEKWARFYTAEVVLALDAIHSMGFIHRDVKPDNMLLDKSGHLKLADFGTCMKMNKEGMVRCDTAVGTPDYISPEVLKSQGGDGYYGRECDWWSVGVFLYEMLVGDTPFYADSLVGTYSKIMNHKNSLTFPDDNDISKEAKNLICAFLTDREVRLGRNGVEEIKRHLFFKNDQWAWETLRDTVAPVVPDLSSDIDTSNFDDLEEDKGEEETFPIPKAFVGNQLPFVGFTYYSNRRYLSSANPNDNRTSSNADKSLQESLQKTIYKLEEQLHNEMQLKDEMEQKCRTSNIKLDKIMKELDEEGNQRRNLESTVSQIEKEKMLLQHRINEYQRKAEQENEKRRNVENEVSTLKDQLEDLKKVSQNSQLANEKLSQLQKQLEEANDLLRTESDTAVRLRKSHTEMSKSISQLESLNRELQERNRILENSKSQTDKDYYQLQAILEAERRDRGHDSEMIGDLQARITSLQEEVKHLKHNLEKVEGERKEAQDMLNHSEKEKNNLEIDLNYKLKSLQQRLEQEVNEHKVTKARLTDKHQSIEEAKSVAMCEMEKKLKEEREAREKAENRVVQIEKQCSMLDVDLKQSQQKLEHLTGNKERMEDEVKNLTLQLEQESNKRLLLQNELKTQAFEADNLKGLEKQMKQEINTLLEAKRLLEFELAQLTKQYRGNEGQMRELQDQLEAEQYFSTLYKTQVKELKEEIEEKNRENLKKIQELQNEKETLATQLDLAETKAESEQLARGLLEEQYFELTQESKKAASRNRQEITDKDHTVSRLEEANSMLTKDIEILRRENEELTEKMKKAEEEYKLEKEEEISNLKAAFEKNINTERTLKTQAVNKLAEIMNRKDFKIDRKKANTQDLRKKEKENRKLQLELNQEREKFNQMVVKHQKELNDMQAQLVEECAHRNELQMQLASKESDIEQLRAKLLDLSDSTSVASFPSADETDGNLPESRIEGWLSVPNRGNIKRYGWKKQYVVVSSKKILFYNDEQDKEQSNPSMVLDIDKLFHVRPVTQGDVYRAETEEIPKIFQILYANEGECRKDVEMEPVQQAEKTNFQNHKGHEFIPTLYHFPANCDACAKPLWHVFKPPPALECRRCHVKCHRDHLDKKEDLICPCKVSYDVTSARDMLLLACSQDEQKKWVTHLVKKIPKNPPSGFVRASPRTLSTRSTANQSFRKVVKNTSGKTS

Row | SMILES | IC50 [1] | further results
1 | Clc1ccccc1CN1CCC(Nc2cccc3cnccc23)C1 (stereo unspecified) | 100 nM | –
2 | Nc1cccc(CN2CC[C@H](Nc3cccc4cnccc34)C2)c1 | 310 nM | Activity [2]: 17%; Activity [3]: 0%; Activity [4]: 30%
3 | c1ccc(CN2CCC(Nc3cccc4cnccc34)CC2)cc1 | 140 nM | –
4 | Clc1cccc(CN2CCCC(Nc3cccc4cnccc34)C2)c1 (stereo unspecified) | 265 nM | –
5 | CCCN[C@H]1CC[C@@H](Nc2cccc3cnccc23)CC1 | 180 nM | –
6 | CC(C)CCN1CCCC(Nc2cccc3cnccc23)C1 (stereo unspecified) | 270 nM | –
7 | Nc1cccc(CN2CC[C@@H](Nc3cccc4cnccc34)C2)c1 | 25 nM | Activity [5]: Dose-dependent effect; Activity [2]: 42%; Activity [3]: 26%; Activity [4]: 52%
8 | Fc1cccc(F)c1CN1CCC(Nc2cccc3cnccc23)C1 (stereo unspecified) | 75 nM | –
9 | Clc1ccc(CN2CCC(Nc3cccc4cnccc34)C2)cc1 (stereo unspecified) | 65 nM | –
10 | c1cc(N[C@H]2CC[C@@H](NC3CC3)CC2)c2ccncc2c1 | 195 nM | –
11 | CC(C)CN1CCC(Nc2cccc3cnccc23)CC1 | 210 nM | –
12 | Nc1ccc(CN2CCC(Nc3cccc4cnccc34)C2)cc1 (stereo unspecified) | 235 nM | –
13 | c1cc(N[C@H]2CC[C@H](NC3CC3)CC2)c2ccncc2c1 | 70 nM | –
14 | Nc1ccccc1CN1CCC(Nc2cccc3cnccc23)C1 (stereo unspecified) | 205 nM | –
15 | Clc1cccc(CN2CCC(Nc3cccc4cnccc34)C2)c1 (stereo unspecified) | 65 nM | –
16 | Clc1ccccc1CN1CCCC(Nc2cccc3cnccc23)C1 (stereo unspecified) | 210 nM | –
17 | c1ccc(CCN[C@H]2CC[C@H](Nc3cccc4cnccc34)CC2)cc1 | 440 nM | –
18 | Nc1cccc(CN2CCC(Nc3cccc4cnccc34)C2)c1 (stereo unspecified) | 275 nM | remaining at 0.5 h, 10 µM [6]: 67%
19 | c1ccc(CCN[C@H]2CC[C@@H](Nc3cccc4cnccc34)CC2)cc1 | 580 nM | –
20 | Fc1ccc(CN2CCC(Nc3cccc4cnccc34)C2)cc1 (stereo unspecified) | 95 nM | –
21 | O=S(=O)(c1cccc2cnccc12)N1CCCNCC1 [FASUDIL] | – | IC50 [7]: 35000 nM
22 | CCCN[C@H]1CC[C@H](Nc2cccc3cnccc23)CC1 | 180 nM | –
23 | CCCN1CCC(Nc2cccc3cnccc23)CC1 | 345 nM | –
